The values below come from patent US20130289019A1, “METHODS OF TREATING BEHAVIORIAL AND/OR MENTAL DISORDERS” (AMAZING GRACE, INC., priority 2012, published 2013).

Experiment [1] deals with ACh outflow in the NAcShell and swimming of rats. Description: local fluoxetine infusion in NAcShell: ACh outflow and swim test. Type of experiment: in vivo, rat.
Experiment [2] deals with rats (basal extracellular ACh in the NAcShell, swim test). Description: chronic systemic fluoxetine: basal extracellular ACh in NAcShell and swim test. Type of experiment: in vivo, rat.
Another experiment relates to rats (NAcShell infusion). Description: locomotor activity in the open field after bilateral fluoxetine infusion into NAcShell. It counts as in vivo, rat.
Another experiment has as its system rats (NAc infusion). Put plainly: swim test scores during bilateral fluoxetine infusion in the NAc. It counts as in vivo, rat.
Experiment [3] has as its system glutamatergic NMDA receptor in the NAc. Put plainly: NMDA receptor antagonists injected into the NAc (Rada et al. 2003). To be noted: Applicant's data (Rada et al. 2003). It counts as in vivo. The source says:
In the NAc, M2/M4 receptors are also located on glutamate-containing axonal terminals that originate from neurons located in corticolimbic and thalamic regions involved in depression and anxiety.

For experiment [4], the system named is extracellular ACh in NAcShell. Put plainly: ACh efflux in NAcShell, infusion by reverse dialysis in freely moving rats. It counts as in vivo, rat. On the procedure: To determine if the M2 drugs act presynaptically on autoreceptors controlling ACh release, freely moving rats received infusions of an M2 agonist or antagonist in the NAcShell for 20 min by reverse dialysis while extracellular ACh was measured.
To determine if the M2 drugs act presynaptically on autoreceptors controlling ACh release, freely moving rats received infusions of an M2 agonist or antagonist in the NAc for 20 min by reverse dialysis while extracellular ACh was measured.

Experiment [5] relates to patients with major depression and bipolar disorder. To be noted: cited from earlier work.
Experiment [6] deals with rats (NAcShell injection). Put plainly: locomotor activity in a photocell cage after drug injection in the NAcShell. Type of experiment: in vivo, rat. To be noted: 10 min following injection in NAcShell; arecoline 40 μg, pirenzepine 35 μg, scopolamine 1 μg, gallamine 0.88 μg. On the procedure:
FIG. 4 is a graph illustrating the effects of cholinergic drugs on locomotor activity in a photocell cage. Activity in the 10 min following drug injection in the NAcShell (black bars) is expressed as a percentage of control injections normalized to 100% (white bars).
FIG. 4 illustrates the effects of cholinergic drugs on locomotor activity in a photocell cage. Activity in the 10 min following drug injection in the NAc (black bars) is expressed as a percentage of control injections normalized to 100% (white bars).

The test system of experiment [7] is rats (NAcShell injection). Description: Porsolt swim test after injection of mAChR agonists and antagonists in the NAcShell. To be noted: for Drug (sec), mean swimming time / Percent change of swimming time vs Ringer / Time diff (sec), drug vs Ringer: 600 sec swim test. It counts as in vivo, rat. On the procedure:
FIG. 3 is a graph illustrating swimming time following injections of cholinergic drugs in NAc (black bars), compared to Ringer (white bars). (A) Local injection of arecoline, a muscarinic agonist, decreased swim time; the animals quickly gave up (40 μg, −41%, n=8, t=3.53, p<0.01; and 80 μg, −66%, n=6, t=4.12, p<0.01). (B) Pirenzepine, an M1 antagonist, increased swimming escape attempts in the manner of an antidepressant, but note this is a local injection (17.5 μg, n=8, +39%, t=3.63, p<0.01; 35 μg, +40%, n=9, t=7.15, p<0.001). […] (D) Local gallamine, an M2 antagonist, decreased swim time (0.13 μg/side, −21%, n=7, t=3.72, p<0.01; 0.44 μg/side, −37%, n=8, t=2.95, p<0.05; 0.88 μg/side, −36%, n=7, t=4.64, p<0.01). Swimming time following Ringer is normalized to 100%, with each bar representing the mean of the normalized responses across subjects. Swimming time following a drug injection is expressed as a percentage of the swimming time following vehicle injection on a different day. Significant changes in the within-subject response to drug injections are indicated with asterisks (* p<0.05, ** p<0.01, *** p<0.001).
The Porsolt swim test is an animal model of depression widely used as a screen for drugs with potential antidepressant effects in humans and for elucidating the pharmacological mechanisms of action of antidepressant medications. For example, the following procedure may be used:
On the first day of this test (day 1), a rodent (typically a rat) is placed in a cylindrical water tank for 15 min. Then after 24 hours (day 2) and 48 hours (day 3), drug and Ringer are administered to the animal in counterbalanced order. Immediately following each injection, the animal is placed in the swim test for 10 min. The length of time it swims during the swim tests is recorded. “Swimming” is defined by escape behaviors (i.e. diving, rigorous paddling with all four legs, circling the tank, and clambering at the tank walls). ‘Immobility’ was scored as floating and treading water just enough to keep the nose above water. Typically, after the first swimming session, animals become behaviorally depressed as shown by swimming less on later test days (day 2 or 3). […] Antidepressants increase swimming without affecting locomotor activity, whereas non-antidepressant drugs such as certain psychostimulants may also decrease immobility, but also increase locomotor activity in the open field test. Therefore, to screen a potential antidepressant, the swim test is typically followed by test for hyperactivity in the open field.
Rats were placed in the 600 sec (10 min) swim test following injections of drugs in the NAcShell. When not swimming, rats floated or made minimal forepaw movements to keep their noses above water. Each rat received one drug counterbalanced with Ringer on a separate day. The shorter control swim times for the gallamine group, relative to groups that received other drugs, may have been due to a seasonal difference. Control injections, shown in the last line, were made 2 mm dorsal to the accumbens (Pirenzepine Ctrl). Asterisks indicate significant difference between drug and Ringer (* p<0.05; ** p<0.01; *** p<0.001).

The test system of experiment [8] is NMDA receptor (depressed humans). To be noted: human trials (Zarate et al. 2006); cited from earlier work.
The mark [9] stands for this setting: 0.2 mM bilateral in NAc, fluoxetine on Day 2 (Ringer Day 3).
Where [10] appears, read: 0.2 mM bilateral in NAc, fluoxetine on Day 3 (Ringer Day 2).
The mark [11] stands for this setting: 0.2 mM bilateral in NAc, on Day 2 or Day 3 (combined).
Setting [12] is: 0.5 mM bilateral in NAc, fluoxetine on Day 2 (Ringer Day 3).
Where [13] appears, read: 0.5 mM bilateral in NAc, fluoxetine on Day 3 (Ringer Day 2).
[14] abbreviates: 0.5 mM bilateral in NAc, on Day 2 or Day 3 (combined).
The mark [15] stands for this setting: 0.75 mM bilateral in NAc, fluoxetine on Day 2 (Ringer Day 3).
The mark [16] stands for this setting: 0.75 mM bilateral in NAc, fluoxetine on Day 3 (Ringer Day 2).
Setting [17] is: 0.75 mM bilateral in NAc, on Day 2 or Day 3 (combined).

“Also recorded” adds a separate entry of the source. Marks after values point to notes of the source that are not given here.

Consider `CNCCC(Oc1ccc(C(F)(F)F)cc1)c1ccccc1` (stereo not drawn) [Fluoxetine], for which the “swimming time greater than during Ringer” value in experiment [1] (1.0 mM local infusion in NAcShell, n=8) was 18.9%. Also, the “swimming time during fluoxetine” value in experiment [1] (1.0 mM local infusion in NAcShell, n=8, Ringer 277±44 sec) is 329 ± 45 s. In addition, the “ACh outflow in the NAcShell, effect in words” value in experiment [1] (during and following 1.0 mM fluoxetine infusion, vs Ringer infusion or pretest) is “substantially lower; also recorded: decreases the extracellular level of ACh”. The “immobility in the swim test, effect in words” value in [1] (unilateral infusion into NAcShell) was “decreases immobility”; in the experiment on rats (NAc infusion) (bilateral infusion into NAcShell, dose-dependently), “decreases immobility”. Further, in experiment [2] (following chronic fluoxetine treatment, saline 42±11), the “swimming plus climbing scores (total escape efforts)” value came to 55±7. For the same compound, the “basal ACh level in the NAcShell, effect in words” value in experiment [2] (low dose subcutaneously, daily over 14 days, rats in the forced swimming test) is given as “normalizes the chronic elevation in basal ACh level”. The “locomotor activity in the open field, in words” value in the experiment on rats (NAcShell infusion) was “does not affect locomotor activity”. The “Climbing score, FLU” value in the experiment on rats (NAc infusion) (setting [9]) turned out to be 39 ± 12; in the experiment on rats (NAc infusion) (setting [10]), 60 ± 15; in the experiment with rats (NAc infusion) (setting [11]), 52 ± 10; in the experiment on rats (NAc infusion) (setting [12]), 45 ± 12; in the experiment on rats (NAc infusion) (setting [13]), 74 ± 10; in the experiment with rats (NAc infusion) (setting [14]), 61 ± 9. Also, the “Climbing score, FLU” value in the experiment on rats (NAc infusion) (setting [15]) worked out at 44 ± 10; in the experiment on rats (NAc infusion) (setting [16]) it was 57 ± 9; in the experiment with rats (NAc infusion) (setting [17]) it was 57 ± 9. The “Immobility score, FLU” value in the experiment on rats (NAc infusion) (setting [9]) came to 66 ± 30; in the experiment on rats (NAc infusion) (setting [10]), 45 ± 13; in the experiment on rats (NAc infusion) (setting [11]), 53 ± 12; with rats (NAc infusion) (setting [12]), 68 ± 9; in the experiment with rats (NAc infusion) (setting [13]), 39 ± 10; in the experiment on rats (NAc infusion) (setting [14]), 51 ± 8. The results for the “Immobility score, FLU” value in the experiment on rats (NAc infusion) (setting [15]), in the experiment with rats (NAc infusion) (setting [16]) and in the experiment on rats (NAc infusion) (setting [17]) were 62 ± 11, 53 ± 7 and 53 ± 7, respectively. Moreover, the “Swimming score, FLU” value in the experiment with rats (NAc infusion) (setting [9]) is recorded as 15 ± 17; in the experiment on rats (NAc infusion) (setting [10]), 14 ± 8; with rats (NAc infusion) (setting [11]) it was 14 ± 7; in the experiment with rats (NAc infusion) (setting [12]) it was 6 ± 3; in the experiment with rats (NAc infusion) (setting [13]), 7 ± 6; in the experiment with rats (NAc infusion) (setting [14]) it was 7 ± 3. Further, the “Swimming score, FLU” value in the experiment with rats (NAc infusion) (setting [15]) is listed as 14 ± 7; with rats (NAc infusion) (setting [16]), 10 ± 4; with rats (NAc infusion) (setting [17]), 10 ± 4.
On to `C[C@]12N[C@H](Cc3ccccc31)c1ccccc12` [dizocilpine], for which the “effect on depression, in words” value in [3] is on record as “alleviate depression”.
Still for that read-out and setting: next, `NC(CCCP(=O)(O)O)C(=O)O` (stereo not drawn) [AP-5]: “alleviate depression”.
In the case of `CN1[C@@H]2C[C@@H](OC(=O)[C@H](CO)c3ccccc3)C[C@H]1[C@@H]1O[C@@H]12` [Scopolamine], the “extracellular ACh” value in experiment [4] (20 min infusion in NAcShell by reverse dialysis, oxotremorine 4 mM (hour following infusion), gallamine 1 mM, scopolamine 10 mM probe concentration) was 220 % of baseline. Also, the “duration of the ACh increase (until return to baseline)” value in [4] (gallamine 1 mM: time following the infusion, scopolamine 10 mM) is “more than 100 min”. Besides, the “ACh level in the NAc, effect in words” value in experiment [4] (inventor's data (Chau et al. 2001)) is “elevates ACh level in the NAc”. In experiment [5] (human trials), the “rate of remission in female patients” value is reported as no more than 71%. Further, the “duration of antidepressant/anti-anxiety effects” value in experiment [5] (one single dose) is “more than 17 days”. Also, in experiment [5] (one single dose, patients with major depression and bipolar disorder), the “time to reduction of depression and anxiety” value was 3 to 5 days. The “locomotor activity vs Ringer, in words” value in experiment [6] is given as “not significantly different from Ringer; also recorded: without altering activity in the open field”. In addition, the entries for the “Drug (sec), mean swimming time” value in experiment [7] (0.5 μg/side in NAcShell) and in experiment [7] (1.0 μg/side in NAcShell) were 306 ± 44 s and 541 ± 13*** sec, respectively. Further, the “Percent change of swimming time vs Ringer” value in experiment [7] (0.5 μg/side in NAcShell) is given as −12%; in [7] (0.5 μg/side in NAcShell, listed as scopolamine) it was “N.S”; in experiment [7] (1.0 μg/side in NAcShell), “+50%”; in experiment [7] (1.0 μg/side in NAcShell, listed as scopolamine) it was “+50%”. For the same compound, the results for the “Time diff (sec), drug vs Ringer” value in experiment [7] (0.5 μg/side in NAcShell) and in experiment [7] (1.0 μg/side in NAcShell) were -44 s and “+181 sec”, respectively. Moreover, the “immobility in the swim test, effect in words” value in experiment [7] (infusion into the NAcShell) was “decreases immobility”.
Take `CNC1(c2ccccc2Cl)CCCCC1=O` (stereo not drawn) [ketamine]: the “antidepressant effect, in words” value in experiment [8] is on record as “rapid antidepressant effect”.
